Data taken from patent US8871900B2, “Fibroblast growth factor (FGF) analogs and uses thereof” (University of Rochester, priority 2008, dated 2014).

Columns and labels:
[1] = Plasma endotoxin after sub-TBI (tachypleus amebocyte lysate kit); format: in vivo, mouse (Balb/c, C57BL/6); settings: Balb/c, 10.5 Gy
Protocol: Some studies have employed bacterial culture of liver samples. Bacterial translocation occurs due to mucosal barrier changes (1) at the level of the basement membrane and (2) bowel mucous volume and composition. The most reliable and most clinically applicable method to measure bacterial translocation is the endotoxin assay. The level of plasma endotoxin 3.5 days post-IR was measured with a commercialized kit that utilized tachypleus amebocyte lysate to sensitively quantitate endotoxin at extremely low levels (<0.01 EU/ml); and 4) body weight (BW): poor nutrition and water absorption will result in reduced body weight. The rate and severity of weight loss, as well as the pace of body weight recovery, will be measured.
(§1) 2) A standard scoring scale was used to evaluate stool formation (diarrhea). The bowel was extracted from the abdomen and visually inspected. Formed stool was easily distinguished from semi-solid and liquid stool as it passed from the ascending to descending colon. FIGS. 7B and 7C show the irradiated bowel in controls compared with FGF-P-treated Balb/c mice. The FGF-P was given at a dose of 2 mg/kg im for three daily doses beginning 15 min after irradiation. Animals were sacrificed 3.5 days after 10.5 Gy sub-TBI.

MCP-1, IL-6, TNFα = assay: Plasma inflammatory molecules after sub-TBI (Luminex bead array); format: in vivo, mouse (Balb/c); settings: Balb/c, 12 Gy sub-TBI
Protocol: Bead array technology has been developed to facilitate the study of cytokine expression profiles in normal tissues following radiation. Bead arrays have several advantages over ELISA. First, mice have a limited blood volume (0.3-0.4 ml of plasma/mouse). Each ELISA typically requires approximately 0.1 ml and thus only a limited number of assays are possible. Secondly, the time required to perform ELISAs one by one stresses the system in a large experiment and would be difficult to perform in the field in case of a radiological event. The Luminex bead array technology was used. The paired monoclonal antibodies, the highly-purified protein standards, and the more than 50 different cytokinespecific beads were purchased. In these studies, Balb/c mice received 12 Gy sub-TBI and then im injection of vehicle alone (0.2 ml of saline), FGF-P (2 mg/kg at 10 min post-IR and daily for two days), or Amifostine (200 mg/kg, either 30 min before IR, or 10 min after IR). The samples were collected 3.5 days after IR.
All three of these cytokines are associated with increased severity and progression of radiation-related inflammatory toxicity in mouse and man.

[2] = Stool hemoccult score after sub-TBI; format: in vivo, mouse (Balb/c, C57BL/6); settings: Balb/c, 12.5 Gy sub-TBI; FGF-P 2 mg/kg im 15 min post irradiation; Amifostine iv 30 min pre-irradiation; P<0.05
Source text: There are commonly employed assays known to be relevant to both mouse and man for determining relative endpoints. These include: 1) stool blood: mucosal barrier breakdown is associated with bleeding of the small bowel; therefore, a hemoccult analysis with a commercial kit (BD Cat #64151) was used in the preliminary data at 3 days after sub-TBI. The time course and frequency of GI bleeding; 2) stool formation: the GI functions of digestion, absorption of nutrition and water, and the regular movement of intestinal muscle are required for formation of normal stool can be measured. All these functions can be upset by radiation. For example, loss of villi leads to decreased fluid absorption and diarrhea. The colon was excised and examined visually for the presence of formed stool at 3.5 days post-IR; 3) endotoximia: bacterial translocation can occur at early times following gastrointestinal radiation exposure.
as §1, with “Animals were sacrificed 3.5 days after 10.5 Gy sub-TBI.” left out

[3] = tested on: proliferating crypts of small intestine; assay: Crypt assay of small intestine after sub-TBI (H&E, BrdU, villi length); format: in vivo, mouse (Balb/c, C57BL/6); settings: Balb/c
Source text: Enhanced proliferation of crypts in small intestine: The epithelium of the small intestine has a rapid turnover, renewing every 3-7 days. The stem cells are located ⅓ of the way up the […] and active mitosis can be seen above growing into the villus and below, forming the crypt. There are no definitive markers available to identify the stem cells, and thus the number of these cells in each crypt are unknown. When the bowel is irradiated, the number of crypts remains constant up to a dose just below the LD50/7. Above that dose, there is a log-linear decrease in the number of crypts, usually measured at 3.5 days. […] Data from the crypt assay can be augmented with injection of BrdU. BrdU can be given to animals at one or more times after irradiation to determine the rate of proliferation and rate of elongation of villi.
FGF-P was then repeated daily for 2 days. At 80 hr post-IR, BrdU (120 mg/kg) was injected ip and 4 hours later (about 3.5 days post-IR), the mice were sacrificed and the duodenal, jejunal and ileal segments (3-4 pieces/segment) were harvested, fixed in formalin, processed in paraffin blocks, cut in transverse sections of the full segment circumference (5 μm thick) and stained with H&E or anti-BrdU following the standard immunochemistry procedure (23). The proliferating crypts were defined as containing 10 or more adjacent chromophilic non-Paneth cells and a lumen. The circumference of a transverse cross-section of the intestine was used as a unit. The number of proliferating crypts was counted in each circumference. At least 10 circumferences were scored per mouse and 4-5 mice were used to generate each data point.
The villi length of duodenum, jejunum and ileum was measured using a customized Imaging Pro program.

irradiated mice (AGS) = settings: cited from earlier work; for dose of peak response: AGS, LD50/7 or crypt assay
[4] = tested on: proliferating crypts of small intestine; settings: comparison stated for native FGFs; cited from earlier work
Cdc42, Rac1, Mapk10, Cfl = assay: Gene expression in irradiated BM cells (Luminex multiplex array); format: cell-based, mouse; settings: treatment 20 min after 5 Gy IR, 6 hours, P<0.05
[5] = in animals; cited from earlier work
FGF receptor = settings: cited from earlier work
[6] = tested on: bovine aortic endothelial cells; settings: in vitro; cited from earlier work

Compound	dose of peak response (irradiated mice (AGS))	crypt survival [4]	radio-protective effects [5]	binding to FGF receptor (FGF receptor)	downstream signaling (FGF receptor)	cell proliferation and radiation-induced apoptosis [6]	also measured
NCCCNCCSP(=O)(O)O [Amifostine]	–	–	–	–	–	–	plasma endotoxin level ([1]; Amifostine given after irradiation): 2.87 EU/ml; plasma endotoxin level (mean) ([1]; Amifostine iv 30 min before IR): 0.93 EU/ml; plasma MCP-1, IL-6 and TNFα (MCP-1, IL-6, TNFα; Amifostine 200 mg/kg 10 min after IR): no benefit; plasma MCP-1, IL-6 and TNFα (MCP-1, IL-6, TNFα; Amifostine 200 mg/kg 30 min before IR): beneficial response; stool hemoccult score [2]: reduced stool hemoccult score; crypt numbers in the ileum ([3]; 12 Gy, Amifostine given after irradiation): no effect when given after irradiation; crypt numbers in the ileum ([3]; 3.5 days after 12 Gy, Amifostine 200 mg/kg iv 30 min before sub-TBI): level of protection matched that obtained for Amifostine
FGF-1: acidic fibroblast growth factor, human protein	approximately 6 μg/mouse	approximately doubles crypt survival	–	–	–	–	–
FGF-2: basic fibroblast growth factor, native full length human protein	approximately 6 μg/mouse	approximately doubles crypt survival	–	–	–	–	dose with benefit (irradiated mice (AGS); human FGF-2 in mice): 1 μg/mouse; expression of Cdc42 (Cdc42, Rac1, Mapk10, Cfl): reversed the IR-suppressed expression; expression of Cfl (cofilin 1) (Cdc42, Rac1, Mapk10, Cfl): suppressed towards normal; expression of Mapk10 (Cdc42, Rac1, Mapk10, Cfl): suppressed towards normal; expression of Rac1 (Cdc42, Rac1, Mapk10, Cfl): reversed the IR-suppressed expression
RFHSWDCIKTWASDTFVLVCYDDGSEA [F2A3, synthetic peptide that mimics FGF-2]	–	–	radio-protective effects similar to bFGF	equivalent to native bFGF	as effectively as bFGF	trigger cell proliferation and block radiation-induced apoptosis similar to bFGF	–
YRSRKYSSWYVALKR [F2A4, synthetic peptide that mimics FGF-2]	–	–	radio-protective effects similar to bFGF	equivalent to native bFGF	as effectively as bFGF	trigger cell proliferation and block radiation-induced apoptosis similar to bFGF	–
